The NIST ThermoML archive (doi:10.1016/j.jct.2015.07.006)
Where “and” joins values, the source holds several entries; their conditions need not be identical. Identical values can stand only once.

Assay: mn = molality of the nth substance listed, in mol/kg
Conditions: 298.15 K, 100 kPa, Liquid, Vibrating tube method

[O]=[Tc](=[O])(=[O])[OH] [pertechnetic acid] + O
Conditions	mass density
m1 = 0.000983	996.83 kg/m3
m1 = 0.00102	996.91 kg/m3
m1 = 0.00113	996.91 kg/m3 and 996.92 kg/m3
m1 = 0.00124	996.91 kg/m3
m1 = 0.00159	996.95 kg/m3
m1 = 0.1	1008.7 kg/m3
m1 = 0.103	1008.77 kg/m3
m1 = 0.114	1009.95 kg/m3
m1 = 0.115	1010.3 kg/m3
m1 = 0.127	1011.76 kg/m3
m1 = 0.163	1016.23 kg/m3
m1 = 0.888	1097.53 kg/m3
m1 = 0.98	1107.47 kg/m3
m1 = 1.007	1117.47 kg/m3
m1 = 1.096	1127.7 kg/m3
m1 = 1.182	1137.34 kg/m3
m1 = 1.265	1146.5 kg/m3
m1 = 1.347	1155.88 kg/m3
m1 = 1.398	1164.11 kg/m3
m1 = 1.535	1178.55 kg/m3
m1 = 1.696	1195.28 kg/m3
m1 = 2.034	1225.06 kg/m3
m1 = 2.106	1235.3 kg/m3
m1 = 2.211	1243.09 kg/m3
m1 = 2.45	1263.95 kg/m3
m1 = 2.555	1272.74 kg/m3
m1 = 2.667	1283.23 kg/m3
m1 = 2.783	1293.03 kg/m3
m1 = 2.908	1303.34 kg/m3
m1 = 3.042	1314.68 kg/m3
m1 = 3.33	1335.81 kg/m3
m1 = 3.49	1348.06 kg/m3
m1 = 3.693	1374.94 kg/m3
m1 = 3.884	1389.83 kg/m3
m1 = 4.038	1399.11 kg/m3
m1 = 4.46	1434.87 kg/m3
m1 = 4.661	1446.75 kg/m3
m1 = 4.851	1460.83 kg/m3
m1 = 5.049	1475.34 kg/m3
m1 = 5.257	1490.81 kg/m3
m1 = 5.485	1507.23 kg/m3
m1 = 5.722	1523.34 kg/m3
m1 = 6.254	1556.61 kg/m3
m1 = 6.537	1574.08 kg/m3
m1 = 6.849	1593.38 kg/m3
m1 = 7.187	1612.75 kg/m3
m1 = 7.54	1634.13 kg/m3
m1 = 7.918	1657.06 kg/m3
m1 = 8.323	1679.31 kg/m3
